Eleven compounds from PubChem BioAssay (NCI) can be followed below.

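Growth conditions: 96-well plates. Treatment: test compound, 48 hours, 5 concentrations. Analysis: linear interpolation between bracketing concentrations; unreached endpoints set to highest concentration. GI50 marks 50% less growth. TGI marks complete inhibition of growth.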

Test systems include COLO 205 colon; A549 NSCLC; PC-3 prostate; NCI-H23 lung; CCRF-CEM leukemia; IGROV1 ovarian; UACC-257 melanoma; MCF7 breast; HOP-62 NSCLC; NCI-H226 lung.
Holding throughout (test): NCI anticancer screen, dose series, 48 h

As for `CC1OC(n2c3ccccc3c3c4c(c5c6ccccc6[nH]c5c32)C(=O)N(CCN2CCOCC2)C4=O)CC(O)C1O` (centres undefined), the GI50 in the assay on COLO 205 colon is 1.22 µM; with A549 NSCLC, 2.51 µM; with PC-3 prostate, 3.55 µM; with NCI-H23 lung it was 2 µM; in the assay with CCRF-CEM leukemia, 2.1 µM; in the assay with IGROV1 ovarian, 3.67 µM. Moreover, the GI50 in the assay on UACC-257 melanoma was 6.11 µM; in the assay on MCF7 breast, 1.05 µM; with HOP-62 NSCLC it was 1.52 µM; with NCI-H226 lung, 2.2 µM. The TGI in the assay with COLO 205 colon turned out to be 7.81 µM; in the assay on A549 NSCLC, 10.4 µM; with PC-3 prostate, 11.4 µM; in the assay on NCI-H23 lung, 11.1 µM; in the assay on CCRF-CEM leukemia, 18.1 µM; in the assay with IGROV1 ovarian it was 16 µM. Further, the TGI worked out at 14.5 µM with UACC-257 melanoma, 18 µM in the assay with MCF7 breast, 8.26 µM with HOP-62 NSCLC and 9.87 µM in the assay with NCI-H226 lung.
Regarding `COc1ccc2c(c1)/C(=C\c1c(Cl)n(C)c3ccccc13)C(=O)N2`, the GI50 in the assay on COLO 205 colon is 0.721 µM; in the assay on A549 NSCLC, 0.818 µM; in the assay with PC-3 prostate, 1.33 µM; with NCI-H23 lung it was 1.99 µM; with CCRF-CEM leukemia, 3.53 µM; in the assay with IGROV1 ovarian, 0.561 µM. Also, the GI50 was 1.87 µM in the assay with UACC-257 melanoma, 0.682 µM in the assay on MCF7 breast, 1.44 µM in the assay on HOP-62 NSCLC and 2.19 µM in the assay on NCI-H226 lung. Besides, the TGI is 4.36 µM with COLO 205 colon; over 100 µM in the assay on A549 NSCLC; over 36.8 µM in the assay with PC-3 prostate; 11.4 µM with NCI-H23 lung; over 100 µM with CCRF-CEM leukemia; 13.3 µM in the assay on UACC-257 melanoma. Moreover, the TGI in the assay with MCF7 breast is over 38.7 µM; in the assay on HOP-62 NSCLC it was 24 µM; with NCI-H226 lung it was 19.5 µM.
As to `O=C(CN1C(=O)S/C(=C\C(Cl)=C\c2ccccc2)C1=O)NCCc1ccc(O)cc1`, the GI50 in the assay on COLO 205 colon is 2.31 µM; in the assay on A549 NSCLC, 3.1 µM; with PC-3 prostate it was 1.96 µM; with NCI-H23 lung, 2.29 µM; with CCRF-CEM leukemia, 2.16 µM; in the assay with IGROV1 ovarian it was 1.76 µM. The GI50 in the assay with UACC-257 melanoma was 2.58 µM; with MCF7 breast, 1.79 µM; in the assay on HOP-62 NSCLC it was 3.34 µM; with NCI-H226 lung it was 1.99 µM. For the same compound, the TGI in the assay on COLO 205 colon was 5.68 µM; with A549 NSCLC, over 100 µM; with PC-3 prostate, 5.12 µM; in the assay with NCI-H23 lung it was 6.15 µM; with CCRF-CEM leukemia, over 100 µM; with IGROV1 ovarian, 3.9 µM. The TGI is 14.5 µM in the assay with UACC-257 melanoma, 11.5 µM in the assay on MCF7 breast, 15.7 µM in the assay with HOP-62 NSCLC and 4.4 µM with NCI-H226 lung.
Regarding `C=CC[C@@H]1/C=C(\C)C[C@H](C)C[C@H](OC)[C@H]2O[C@@](O)(C(=O)C(=O)N3CCCC[C@H]3C(=O)O[C@H](/C(C)=C/C3CC[C@@H](O)[C@H](OC)C3)[C@H](C)[C@@H](O)CC1=O)[C@H](C)C[C@@H]2OC` (some centres undefined), the GI50 in the assay with COLO 205 colon was 19.3 µM; with A549 NSCLC it was 12.7 µM; in the assay with PC-3 prostate, 12.1 µM; in the assay on NCI-H23 lung it was 16.3 µM; in the assay on CCRF-CEM leukemia it was 14.6 µM; with IGROV1 ovarian, 17.3 µM. For the same compound, the GI50 in the assay with UACC-257 melanoma was 15.8 µM; in the assay with MCF7 breast, 13.8 µM; with HOP-62 NSCLC, 16.2 µM; with NCI-H226 lung it was 15.3 µM. Further, the TGI in the assay on COLO 205 colon worked out at 36.6 µM; in the assay with A549 NSCLC it was 25.7 µM; in the assay with PC-3 prostate, 25.7 µM; in the assay with NCI-H23 lung it was 32.7 µM; in the assay with CCRF-CEM leukemia it was 39.7 µM; in the assay with IGROV1 ovarian it was 41 µM. Besides, the TGI was found to be 30.6 µM in the assay with UACC-257 melanoma, 29 µM in the assay on MCF7 breast, 31.1 µM in the assay with HOP-62 NSCLC and 30.1 µM in the assay with NCI-H226 lung.
In the case of `CCCCCCCCCCCCCCCCCC(=O)OCC(COC1OC(CS(=O)(=O)O)C(O)C(O)C1O)OC(=O)CCCCCCCCCCCCCCCCC` (centres undefined), the TGI with COLO 205 colon, in the assay with A549 NSCLC, with PC-3 prostate, in the assay with NCI-H23 lung, with CCRF-CEM leukemia and in the assay on IGROV1 ovarian was over 100 µM throughout. In addition, the TGI in the assay on UACC-257 melanoma, in the assay with MCF7 breast, with HOP-62 NSCLC and with NCI-H226 lung was over 100 µM each time.
As for `COc1ccc(OC)c(/C=C2\COc3ccc(O)c(O)c3C2=O)c1`, the GI50 was 3.22 µM in the assay on COLO 205 colon; 3.07 µM with A549 NSCLC; 1.82 µM in the assay with PC-3 prostate; 2.44 µM in the assay on NCI-H23 lung; 0.679 µM in the assay on CCRF-CEM leukemia; 2.31 µM with IGROV1 ovarian. Moreover, the GI50 with UACC-257 melanoma was 2.43 µM; in the assay on MCF7 breast, 1.2 µM; with HOP-62 NSCLC it was 8.63 µM; in the assay on NCI-H226 lung it was 6.76 µM. Also, the TGI was 9.51 µM in the assay on COLO 205 colon; 11.9 µM with A549 NSCLC; 6.82 µM in the assay on PC-3 prostate; 7.3 µM in the assay on NCI-H23 lung; 34.4 µM with CCRF-CEM leukemia; 6.68 µM with IGROV1 ovarian. For the same compound, the TGI in the assay with UACC-257 melanoma amounted to 7.82 µM; in the assay with MCF7 breast it was 14.4 µM; in the assay on HOP-62 NSCLC, 24.5 µM; in the assay on NCI-H226 lung it was 36.8 µM.
Turning to `CCN(CC)CCCC(Cc1ccccc1)Nc1c2ccc(Cl)cc2nc2ccc(OC)cc12` (centres undefined), the GI50 in the assay on COLO 205 colon was 1.61 µM; in the assay with A549 NSCLC it was 2.79 µM; with PC-3 prostate, 5.22 µM; in the assay on NCI-H23 lung it was 2.9 µM; in the assay on CCRF-CEM leukemia, 2 µM; in the assay with IGROV1 ovarian, 3.21 µM. Moreover, the GI50 in the assay with UACC-257 melanoma was 1.89 µM; in the assay with MCF7 breast, 1.54 µM; with HOP-62 NSCLC, 3.39 µM; with NCI-H226 lung, 3.63 µM. Further, the TGI in the assay on COLO 205 colon was 3.37 µM; in the assay on A549 NSCLC, 7.29 µM; in the assay on PC-3 prostate it was 19.1 µM; with NCI-H23 lung it was 8.47 µM; in the assay on CCRF-CEM leukemia, 6.51 µM; in the assay on IGROV1 ovarian, 13.2 µM. For the same compound, the TGI in the assay on UACC-257 melanoma stood at 3.44 µM; in the assay on MCF7 breast it was 3.35 µM; in the assay on HOP-62 NSCLC, 12.5 µM; with NCI-H226 lung, 14.5 µM.
For `Clc1ccc(C2=NN[C@H](c3cn(-c4ccccc4)nc3-c3ccccc3)C2)cc1`, the GI50 in the assay with COLO 205 colon is 4.63 µM; with A549 NSCLC, 3.37 µM; in the assay on PC-3 prostate, 3.68 µM; in the assay on NCI-H23 lung, 5.27 µM; with CCRF-CEM leukemia, 8.23 µM; in the assay with IGROV1 ovarian, 6.28 µM. Besides, the GI50 with UACC-257 melanoma was 4.91 µM; in the assay with MCF7 breast, 4.8 µM; with HOP-62 NSCLC it was 2.31 µM; in the assay on NCI-H226 lung, 5.96 µM. Further, the TGI in the assay on COLO 205 colon was 22.4 µM; in the assay with A549 NSCLC, 14.4 µM; in the assay on PC-3 prostate, 14.6 µM; with NCI-H23 lung it was 23.4 µM; in the assay with CCRF-CEM leukemia, 45.3 µM; in the assay on IGROV1 ovarian, 33.2 µM. The TGI in the assay on UACC-257 melanoma was determined as 37.5 µM; in the assay with MCF7 breast it was 17.9 µM; in the assay with HOP-62 NSCLC it was 5.76 µM; in the assay on NCI-H226 lung, 25.4 µM.
With `N=c1n(Cc2ccccc2)c(N)cc(=O)n1Cc1ccccc1`, the GI50 was 3.97 µM in the assay on COLO 205 colon; 1.19 µM in the assay on A549 NSCLC; 2.74 µM in the assay on PC-3 prostate; 1.48 µM in the assay on NCI-H23 lung; 1.63 µM with CCRF-CEM leukemia; 4.04 µM in the assay with IGROV1 ovarian. In addition, the GI50 with UACC-257 melanoma is 3.1 µM; with MCF7 breast, 2.73 µM; in the assay on HOP-62 NSCLC, 1.35 µM; in the assay on NCI-H226 lung, 3.45 µM. The TGI with COLO 205 colon is 13.8 µM; in the assay on A549 NSCLC, 2.56 µM; in the assay with PC-3 prostate it was 19.9 µM; in the assay on NCI-H23 lung, 5.96 µM; with CCRF-CEM leukemia, 8.65 µM; in the assay with IGROV1 ovarian, over 59.8 µM. For the same compound, the TGI in the assay on UACC-257 melanoma was 11 µM; with MCF7 breast it was 18.4 µM; in the assay on HOP-62 NSCLC it was 2.68 µM; in the assay with NCI-H226 lung it was 9.56 µM.
`COc1ccc(-c2nn(-c3cccc(NC(=O)c4cccc(C(F)(F)F)c4)c3)cc2-c2ccncc2)cc1Cl`: the GI50 with COLO 205 colon is 1.77 µM; with A549 NSCLC, 2.7 µM; with PC-3 prostate it was 1.98 µM; in the assay with NCI-H23 lung, 3.58 µM; with CCRF-CEM leukemia it was 1.9 µM; in the assay on IGROV1 ovarian it was 7.06 µM. Also, the GI50 in the assay with UACC-257 melanoma is 6.67 µM; with MCF7 breast, 1.81 µM; with HOP-62 NSCLC it was 3.07 µM; with NCI-H226 lung it was 4.92 µM. The TGI was 3.53 µM in the assay on COLO 205 colon; over 100 µM in the assay with A549 NSCLC; over 100 µM with PC-3 prostate; 92.8 µM with NCI-H23 lung; over 100 µM in the assay with CCRF-CEM leukemia; over 100 µM in the assay on IGROV1 ovarian. The TGI is 61.7 µM in the assay with UACC-257 melanoma, 24.8 µM in the assay with MCF7 breast, over 100 µM with HOP-62 NSCLC and over 100 µM in the assay on NCI-H226 lung.
`COc1nc(N)nc2c1ncn2[C@@H]1O[C@H](CO)[C@@H](O)[C@@H]1O`: the GI50 is over 100 µM in the assay on COLO 205 colon; over 100 µM with A549 NSCLC; over 100 µM in the assay on PC-3 prostate; over 100 µM with NCI-H23 lung; 2.66 µM in the assay on CCRF-CEM leukemia; over 100 µM in the assay on IGROV1 ovarian. For the same compound, the GI50 in the assay with UACC-257 melanoma, in the assay on MCF7 breast, in the assay with HOP-62 NSCLC and in the assay with NCI-H226 lung was over 100 µM in each case. Further, the TGI in the assay on COLO 205 colon, with A549 NSCLC, in the assay with PC-3 prostate, with NCI-H23 lung, in the assay on CCRF-CEM leukemia and in the assay on IGROV1 ovarian was over 100 µM in each case. In addition, the TGI with UACC-257 melanoma, in the assay on MCF7 breast, in the assay with HOP-62 NSCLC and in the assay with NCI-H226 lung was over 100 µM throughout.
